Molecules are shown by their SMILES.

For data set [1], the target named is T1, 20S proteasome extracted from rat liver (CT-L) (Rattus norvegicus, UniProt P18421+P28075).
T1 construct: 20S proteasome extracted from rat liver; from tissue; host or cells: rat liver
Kind of data set: inhibition of 20S proteasome, CT-L activity (fluorescent peptide). It is filed as biochemical. As to conditions: rat liver 20S proteasome; for inhibition at 0.2 µM / inhibition at 2 µM / inhibition at 20 µM: 37° C., 1 h, read-out: inhibition rates (%) CT-L; for IC50: read-out: IC50 (μM) CT-L. How it is done:
(§1) 1 μg of 20S proteasome extracted from rat liver was incubated with a 100 μL solution containing various concentrations of the present compounds, 50 μM fluorescent peptides and 20 mM Tris-HCl at 37° C. for 1 h, respectively. […] 0.1% DMSO was used as a solvent control. Compared with the fluorescence of solvent control, an inhibition rate or IC50 value was calculated.

The target in data set [2] is T2, 20S proteasome extracted from rat liver (PGPH) (Rattus norvegicus, UniProt P28073+Q9JHW0).
T2 construct: 20S proteasome extracted from rat liver; from tissue; host or cells: rat liver
Kind of data set: inhibition of 20S proteasome, PGPH activity (fluorescent peptide). The format is biochemical. The following applies: rat liver 20S proteasome; for inhibition at 0.2 µM / inhibition at 2 µM / inhibition at 20 µM: 37° C., 1 h, read-out: inhibition rates (%) PGPH; for IC50: read-out: IC50 (μM) PGPH. How it is done:
as §1

Data set [3] has as its target T3, 20S proteasome extracted from rat liver (T-L) (Rattus norvegicus, UniProt P40112+Q9JHW0).
T3 construct: 20S proteasome extracted from rat liver; from tissue; host or cells: rat liver
The data set is described as follows: inhibition of 20S proteasome, T-L activity (fluorescent peptide). The format is biochemical. The following applies: rat liver 20S proteasome; for inhibition at 0.2 µM / inhibition at 2 µM / inhibition at 20 µM: 37° C., 1 h, read-out: inhibition rates (%) T-L; for IC50: read-out: IC50 (μM) T-L. On the procedure:
as §1

The subject of data set [4] is Hela, human cervical carcinoma. Kind of data set: preliminary anti-tumor screening in vitro, MTT method. It is filed as cell-based. As to conditions: read-out: inhibition rates (%) Hela. In outline:
(§2)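 Inhibition rates measured at 0.1, 1 or 10 μM compound; cell growth read by MTT for Hela, SRB for BGC-823, MCF-7 and A549.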
(Tetrazolium dyes change colour on reduction, which living cells bring about.)

In data set [5] the test system is A549, human lung cancer. Kind of data set: preliminary anti-tumor screening in vitro, SRB method. The format is cell-based. The following applies: read-out: inhibition rates (%) A549. The gist of the method:
as §2
(In general: In SRB staining, fixed cells bind dye roughly in proportion to their protein.)

Data set [6] has as its system BGC-823, liver cancer. Described as above. The following applies: Homo sapiens, read-out: inhibition rates (%) BGC-823. It is filed as cell-based. The gist of the method:
as §2

Data set [7] relates to MCF-7, breast cancer. The description is as above. As to conditions: Homo sapiens, read-out: inhibition rates (%) MCF-7; for inhibition at 0.1 µM: MCF7, 0.1 μM; for inhibition at 1 µM: MCF7, 1 μM; for inhibition at 10 µM: MCF7, 10 μM. The format is cell-based. The gist of the method:
as §2

In data set [8] the test system is HepG2 liver cancer cells. The data set is described as follows: anti-tumor activity in vitro (IC50), MTT. The format is cell-based. As to conditions: Homo sapiens, liver cancer cells, 72 h, read-out: IC50 (μM) HepG2. On the procedure:
(§3) Cancer cells were cultured in vitro. When cell growth reached logarithmic phase, the cells were collected and centrifuged at 1000 rpm for 5 min, before the supernate was removed and the cells were suspended in a moderate amount of medium, and then the concentration of cell was adjusted to 3.5×10^4/mL. The cell suspension was added into a 96-well plate with 100 μL per well and cultured in a cell incubator (37° C., 5% CO2) for 24 h. Then test drugs of different end concentrations were added, and the negative control group was added DMSO (end concentration was 0.5%), while each group afforded three repetitive holes. After cultivation for another 72 h in the cell incubator, a solution containing 5 mg/ml MTT (20 μL) was added into each well and the 96-well plate was placed at 37° C. for 3 h. To each well was added 150 μL DMSO, after oscillation in a shaking table for 5 min, the optical density (OD) values at 492 nm/620 nm were measured. IC50 values were calculated by Prism Graphpad statistical software.

The test system of data set [9] is MGC803 stomach cancer cells. Kind of data set: anti-tumor activity in vitro (IC50), MTT. As to conditions: Homo sapiens, MGC-803; stomach cancer cells, MTT, 72 h; read-out: IC50 (μM) MGC803. The format is cell-based. On the procedure:
as §3

In turn, `CC(C)C[C@H](NC(=O)N[C@@H](Cc1ccccc1)C(=O)Nc1cccc(OCc2ccccc2)c1)B1OC2C[C@H]3C[C@H](C3(C)C)[C@@]2(C)O1` (stereo partly drawn) [Example 5, N-L-leucine borate pinanediol ester-N′-(3-benzyloxy-phenylcarbamoyl)-L-phenylalanine-urea] had a melting point of 78 to 80 °C. For the same compound, in data set [1], the inhibition at 0.2 µM is -17.8%, the inhibition at 2 µM was -15.1% and the inhibition at 20 µM is -3.13%. Besides, in [2], the inhibition at 0.2 µM is 2.67%, the inhibition at 2 µM was 3.15% and the inhibition at 20 µM came to 9.71%. Also, in data set [3], the inhibition at 0.2 µM is -5.23%, the inhibition at 2 µM was -1.52% and the inhibition at 20 µM is 0.968%. Moreover, in data set [4], the inhibition at 0.1 µM is 7.42%, the inhibition at 1 µM was 10.3% and the inhibition at 10 µM was determined as 21.8%. Moreover, in [5], the inhibition at 0.1 µM is 3.25%, the inhibition at 1 µM is 10.3% and the inhibition at 10 µM came out at 30.3%. Besides, in [6], the inhibition at 0.1 µM was found to be 5.47%, the inhibition at 1 µM was determined as 3.19% and the inhibition at 10 µM was 8.66%. In addition, in data set [7], the inhibition at 0.1 µM stood at 6.37%, the inhibition at 1 µM was determined as 8.84% and the inhibition at 10 µM was 8.44%.
Take `CC(C)C[C@H](NC(=O)N[C@@H](Cc1ccccc1)C(=O)Nc1cnccn1)B1OC2C[C@H]3C[C@H](C3(C)C)[C@@]2(C)O1` (stereo partly drawn) [Example 7, N-L-leucine borate pinanediol ester-N′-(pyrazin-2-ylcarbamoyl)-L-phenylalanine-urea]: the melting point lay in the range of 93 to 95 °C. Besides, in [1], the inhibition at 0.2 µM stood at 23.4%, the inhibition at 2 µM is 47.2% and the inhibition at 20 µM worked out at 82.6%. Besides, in data set [2], the inhibition at 0.2 µM is 5.76%, the inhibition at 2 µM is 1.95% and the inhibition at 20 µM is 0.485%. In data set [3], the inhibition at 0.2 µM is -16.5%, the inhibition at 2 µM is -12.6% and the inhibition at 20 µM came to 25.3%. For the same compound, in data set [4], the inhibition at 0.1 µM stood at 0.48%, the inhibition at 1 µM was 5.11% and the inhibition at 10 µM was found to be 14.9%. Besides, in [5], the inhibition at 0.1 µM was -1.53%, the inhibition at 1 µM was 2.54% and the inhibition at 10 µM is 15.5%. For the same compound, in data set [6], the inhibition at 0.1 µM was 2.21%, the inhibition at 1 µM was 0.62% and the inhibition at 10 µM turned out to be 6.88%. Besides, in [7], the inhibition at 0.1 µM stood at 4.81%, the inhibition at 1 µM was determined as 7.4% and the inhibition at 10 µM turned out to be 11.7%.
On to `CC(C)C[C@H](NC(=O)[C@H](Cc1ccccc1)NC(=O)NCc1ccccc1)B(O)O` [Example 14, N-L-phenylalanyl-L-leucine borate-N′-benzylamine-urea], for which the figures for the inhibition at 0.2 µM in data set [1], in [2] and in data set [3] were 82.1%, 6.46% and 5.04%, respectively. For the same compound, the inhibition at 2 µM in data set [1] was found to be 96.1%; in [2] it was 84.6%; in data set [3], 57.8%. For the same compound, the inhibition at 20 µM in [1] is 98.9%; in data set [2] it was 97%; in [3], 88.4%. Besides, the inhibition at 0.1 µM worked out at 40.3% in data set [4], 2.67% in [5], 12.9% in data set [6] and 51.9% in data set [7]. The inhibition at 1 µM in data set [4] worked out at 43.2%; in data set [5] it was 13%; in data set [6] it was 33.5%; in data set [7], 67.8%. In addition, the inhibition at 10 µM in [4] was found to be 53.5%; in [5] it was 33.3%; in data set [6], 38.2%; in [7], 72.2%. The IC50 in [8] stood at 0.0873 µM; in data set [9], 0.0188 µM.
Take `COc1ccc(CNC(=O)N[C@@H](Cc2ccccc2)C(=O)N[C@@H](CC(C)C)B(O)O)cc1` [Example 15, N-L-phenylalanyl-L-leucine borate-N′-(p-methoxy-benzylamine)-urea]: the inhibition at 0.2 µM is 86.3% in data set [1], 8.45% in [2] and 5.72% in data set [3]. Further, the inhibition at 2 µM in data set [1] came out at 95.9%; in [2] it was 89.4%; in data set [3], 53.5%. Moreover, the inhibition at 20 µM turned out to be 98.3% in [1], 96.8% in data set [2] and 90.4% in [3]. Also, the inhibition at 0.1 µM was determined as 39.3% in data set [4], 2.63% in [5], 7.38% in data set [6] and 47.7% in [7]. The inhibition at 1 µM in data set [4] turned out to be 44.5%; in data set [5], 11%; in [6] it was 32.6%; in data set [7], 65%. For the same compound, the inhibition at 10 µM worked out at 51.8% in data set [4], 31.1% in [5], 38.4% in data set [6] and 73.8% in data set [7]. Also, the IC50 in [8] was determined as 0.25 µM; in [9] it was 0.036 µM.
With `COc1ccc(OC)c(CNC(=O)N[C@@H](Cc2ccccc2)C(=O)N[C@@H](CC(C)C)B(O)O)c1` [Example 18, N-L-phenylalanyl-L-leucine borate-N′-(2,5-dimethoxy-benzylamine)-urea], the figures for the inhibition at 0.2 µM in data set [1], in data set [2] and in [3] were 82.1%, 9.81% and 4.99%, respectively. Moreover, the inhibition at 2 µM in [1] was 96.7%; in data set [2] it was 68.8%; in data set [3] it was 56.9%. Moreover, the inhibition at 20 µM was 98.3% in data set [1], 97.1% in data set [2] and 91% in [3]. In addition, the inhibition at 0.1 µM in [4] amounted to 37.8%; in data set [5], 44.3%; in data set [6] it was 41.4%; in [7] it was 25.8%. For the same compound, the inhibition at 1 µM in [4] was determined as 39.6%; in [5], 63.5%; in data set [6], 46.6%; in data set [7], 37.5%. The inhibition at 10 µM in data set [4] was determined as 46.5%; in [5], 66%; in data set [6], 50%; in data set [7] it was 47.8%. The figures for the 50% inhibitory concentration (IC50) in [8] and in data set [9] were 0.0528 µM and 0.0106 µM, respectively.
Take `CC(C)C[C@H](NC(=O)[C@H](Cc1ccccc1)NC(=O)NCc1ccc(-c2ccccc2)cc1)B(O)O` [Example 32, N-L-phenylalanyl-L-leucine borate-N′-p-phenyl-benzylamine-urea]: the IC50 was 0.0003 µM in [1]; 0.24 µM in data set [2]; 1.15 µM in [3]; 0.0372 µM in data set [8]; 0.00587 µM in [9].
In the case of `CC(C)C[C@H](NC(=O)[C@H](Cc1ccccc1)NC(=O)NCc1cccc2ccccc12)B(O)O` [Example 34, N-L-phenylalanyl-L-leucine borate-N′-naphth-1-ylmethylamine-urea], the IC50 in data set [1] is 0.012 µM; in [2], 0.12 µM; in [3], 0.15 µM; in data set [8], 0.0531 µM; in data set [9], 0.00706 µM.

The term inhibition denotes the change of the read-out against control, counted positive when it falls. What is called melting point is the temperature of the solid-liquid transition. A word on the IC50: it is the point on the concentration scale where inhibition reaches its midpoint.

For the origin of these results see patent US10494384B2, “Urea peptoid boric acid compound, pharmaceutical composition thereof, preparation method therefor, and uses thereof” (Peking University, priority 2015, dated 2019).
